We go through 2 compounds from patent US6852501B2, “Methods for determining ATPase activity and uses thereof” (Boehringer Ingelheim (Canada) Ltd., priority 1999, dated 2005).

One experiment has as its target T1, HPV-11 E1 (Human papillomavirus 11, UniProt P04014).
T1 construct: polyhistidine; made in house; host or cells: baculovirus-infected insect cells
Briefly: E1 ATPase SPA kinetic analysis (Km/Ki). In kind it is biochemical, human papilloma virus. The text has this:
Polyhistidine-tagged HPV-11 E1 was expressed in baculovirus-infected insect cells and purified by Ni-affinity chromatography as described in WO 99/57283 (incorporated herein by reference).
ATPase time-courses were run at different concentrations of ATP in order to determine the kinetic parameter Km(ATP) for HPV-11 E1. Reactions were run under similar conditions in both experiments, using the procedures given in Examples 1 and 2, except that the concentration of Igepal-CA630 was 0.01% rather than 0.005% and with experiment-specific changes noted below. The E1 concentration was 2 nM and the ATP concentrations ranged from 3-75 μM (TLC) or 2-50 μM (SPA), with the MgOAc concentration equal to the ATP concentration plus 0.5 mM. Stock solutions of ATP at each concentration were obtained by diluting the highest concentration solution with buffer containing 0.5 mM MgOAc; thus a constant ratio of radiolabeled to unlabeled ATP was used for all reactions. Reaction rates were measured by taking time-points from 10 or 20 to 120 minutes. To insure initial velocity conditions, time-points giving greater than 20% conversion were not used for analysis.
Total reaction volumes were 150 μL. For each time-point, 20 μL of reaction mixture was removed and combined with 40 μL of ammonium molybdate/SPA bead mixture followed by 80 μL of CsCl/citric acid. All reactions were run in triplicate. Plates were counted after overnight incubation. At the last time-point, an additional 20 μL aliquot was removed and combined with 10 μL 0.5 M EDTA. In this case, the conversion of ATP to phosphate was quantified by TLC, and the concentration of phosphate determined by TLC was compared to the cpm from the SPA procedure, after subtraction of blanks in both cases. The relationship between phosphate concentration and cpm is linear and the slope of the line was used to convert cpm values from SPA detection to concentration of phosphate produced. Rates of phosphate production at each ATP concentration were fit by nonlinear regression to the Michaelis-Menten equation using the program Grafit (V 3.01, R. Leatherbarrow).
The γ-thio phosphate analog of ATP inhibits many ATPases by a competitive mechanism. Experimental determination of the mechanism of inhibitor action requires measuring initial velocities for a number of substrate and inhibitor concentrations. The number of data points needed (several hundred) and the precision required for this experiment mean that performing the experiment by TLC detection is much more difficult and tedious. The SPA procedure works well, however. For this experiment, ATP concentrations of 5, 10, 20 and 40 μM were used, along with inhibitor concentrations of 0, 3, 6, 12 and 24 μM. Reactions were run as described for Example 9 (SPA detection). Data were processed as above and fit by nonlinear regression to an equation for competitive inhibition using GraFit. […] The plot was generated in Excel using the fitted parameters for the lines and the experimental values for points. For comparison, the data were also fit to an equation for non-competitive inhibition (equal binding of inhibitor to enzyme and enzyme-substrate complexes). […] Because of the quality of the data obtained it is possible to observe a systematic deviation between the experimental and fitted values for this second mechanism, especially at higher inhibitor concentrations.

The target in experiment [1] is HPV-6a ATPase activity (HPV-6 E1) (Human papillomavirus type 6a, UniProt Q84293). The experiment is described as follows: E1 ATPase scintillation proximity assay, IC50 curves. In kind it is biochemical, human papilloma virus. Conditions: nonlinear regression; 1 μM ATP, 6 nM HPV-6 E1, 75 minutes, SPA detection; read-out: IC50 for inhibition of HPV-6a ATPase activity. Here is the method:
Radiolabeled [γ-^33P]ATP (NEN) was prepared upon receipt by diluting it 100-fold in the reaction buffer and storing it at −80° C. Material stored in this way was good for greater than one month. E1 ATPase reactions were run in a buffer consisting of 20 mM HEPES, pH 7.5, 0.05 mM EDTA and 1 mM DTT, and 0.05% Igepal CA-630 (equivalent to Nonidet P40). Volumes and concentrations given below are typical, but these can be varied somewhat with minimal effect on results, as shown in later examples. One μM ATP (Amersham Pharmacia) and 500 μM MgOAc were mixed with [γ-^33P]ATP at 100-fold dilution from the stored material (10,000 dilution from the stock), or approximately 1 nCi/μL when fresh. The actual ATP concentration contributed by [γ-^33P]ATP was approximately 1 nM; this amount could be reduced further if necessary. […]
At the desired time, 40 μL reactions were stopped by adding 20 PL of a SPA bead-AmMo mixture. […] The extent of phosphate production was then determined by scintillation counting using the TopCount (Packard). If desired, cpm can be converted to phosphate concentration by comparison of SPA results to those determined by TLC (see below) for identical reactions. […]
All solutions are made in the assay buffer described in Example 3 except that the assay buffer also contained 0.005% Igepal CA-630. […] After mixing briefly, plates were left for 90 minutes and then counted on a TopCount. […]
A general note: Scintillation proximity formats need no separation of bound from free tracer.

Read-outs that look alike come from different tables or passages of the source.

T1 sequence (P04014 whole entry): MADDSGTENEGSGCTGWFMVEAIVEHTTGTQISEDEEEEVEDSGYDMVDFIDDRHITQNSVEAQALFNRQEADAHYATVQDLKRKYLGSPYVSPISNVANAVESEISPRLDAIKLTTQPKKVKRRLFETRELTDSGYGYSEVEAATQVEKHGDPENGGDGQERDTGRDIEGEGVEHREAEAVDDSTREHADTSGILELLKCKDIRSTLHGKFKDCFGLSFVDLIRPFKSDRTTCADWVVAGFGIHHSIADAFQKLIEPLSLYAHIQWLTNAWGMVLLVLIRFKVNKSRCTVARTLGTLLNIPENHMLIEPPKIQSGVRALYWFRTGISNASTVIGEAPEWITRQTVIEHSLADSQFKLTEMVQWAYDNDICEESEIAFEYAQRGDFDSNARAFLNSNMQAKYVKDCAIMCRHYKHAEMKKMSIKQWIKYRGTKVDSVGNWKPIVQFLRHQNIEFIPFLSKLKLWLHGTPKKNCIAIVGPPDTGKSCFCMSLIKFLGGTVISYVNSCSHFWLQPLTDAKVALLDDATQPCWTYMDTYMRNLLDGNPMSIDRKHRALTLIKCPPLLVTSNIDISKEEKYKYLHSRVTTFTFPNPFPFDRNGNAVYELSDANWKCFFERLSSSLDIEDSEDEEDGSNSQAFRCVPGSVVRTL
HPV-6a ATPase activity (HPV-6 E1), sequence (Q84293 whole entry): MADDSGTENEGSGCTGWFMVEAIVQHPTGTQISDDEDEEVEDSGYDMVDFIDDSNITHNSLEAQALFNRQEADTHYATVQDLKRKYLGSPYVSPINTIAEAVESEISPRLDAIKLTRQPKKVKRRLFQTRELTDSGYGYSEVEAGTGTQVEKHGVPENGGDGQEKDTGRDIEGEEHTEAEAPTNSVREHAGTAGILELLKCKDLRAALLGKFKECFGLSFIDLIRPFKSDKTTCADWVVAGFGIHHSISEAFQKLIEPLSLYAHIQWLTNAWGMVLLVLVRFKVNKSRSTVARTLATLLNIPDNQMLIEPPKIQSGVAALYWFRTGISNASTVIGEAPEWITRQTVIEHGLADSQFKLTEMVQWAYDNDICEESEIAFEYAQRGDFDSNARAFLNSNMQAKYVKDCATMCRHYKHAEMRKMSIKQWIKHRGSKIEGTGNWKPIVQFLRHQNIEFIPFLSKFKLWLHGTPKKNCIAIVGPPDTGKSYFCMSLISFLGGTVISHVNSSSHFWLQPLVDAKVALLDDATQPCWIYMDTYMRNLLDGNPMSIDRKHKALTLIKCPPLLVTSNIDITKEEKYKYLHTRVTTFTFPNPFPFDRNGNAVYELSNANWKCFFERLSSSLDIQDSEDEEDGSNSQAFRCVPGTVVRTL

For the compound `Nc1ncnc2c1ncn2[C@@H]1O[C@H](COP(=O)(O)OP(=O)(O)OP(=O)(O)O)[C@@H](O)[C@H]1O` [ATP], the Michaelis constant (Km) on HPV-11 E1 (background statement, measured in the absence of DNA, read-out: Km (ATP) of the HPV-11 E1 ATPase) was roughly 10 µM; at HPV-11 E1 (fit to competitive inhibition, read-out: Km(ATP)), 6.7 ± 0.7 µM; on HPV-11 E1 (fit to non-competitive inhibition, read-out: Km(ATP)), 12 ± 2 µM.

For the compound “adenosine-5′-O-(3-thiotriphosphate) [ATP-γ-S]”, the IC50 in experiment [1] was 8 ± 1.6 µM. For the same compound, on HPV-11 E1 (comparison of competitive and noncompetitive fits), the mechanism of inhibition entry is recorded as “the competitive model is more appropriate”. Moreover, the Ki(ATP-γ-S) on HPV-11 E1 (fit to non-competitive inhibition (equal binding to enzyme and enzyme-substrate complexes)) amounted to 16 ± 2 µM.

What is called Km is the concentration of substrate that gives half-maximal velocity. One may read the IC50 as the concentration needed to halve the response being measured.
